Test system: −2 DAA WT ovaries
Experiment: RNA-seq of −2 DAA WT ovaries treated with 2,4-D vs mock
Type: in vivo, Tomato (Solanum lycopersicum)
Settings: 100 μM 2,4-D, fold change >1.5, p<0.05
Description: Tomato plants were grown in greenhouse with 16 h day/8 h night light cycle as described previously (Hu et al.). Parthenocarpy test was done as described previously in Hu et al., with some modifications: −2 DAA flowers on mature tomato plants (2-6 weeks after first flowering) were emasculated and recorded fruit growth 5 weeks later; fruit diameter of at least 1 cm was considered as parthenocarpy. For fruit yield analysis, the number of flowers were counted for each young flower cluster of ˜two-month-old plants, and fruits developed on these clusters were harvested individually and weighed when they were at the red ripe stage. Whole plant phenotypes including plant height, internode numbers and length, and leaf morphology were recorded 5 weeks after sowing. For 2,4-D treatment, 10 μl of 100 μM 2,4-D, or mock solvent (5% MeOH, 0.1% Tween-20) was applied to −2 DAA ovaries of emasculated flowers. All statistical analyses were performed using Student's t-test.
Total RNAs were purified from −2 DAA ovaries of WT and 8a-1 8b-1, as well as −2 DAA WT ovaries treated with 100 μM 2,4-D for 2/6/24 h or mock treated (5% methanol, 0.1% Tween 20). RNA-Seq cDNA libraries (three biological repeats) were prepared with the QuantSeq 3′mRNA-Seq library prep kit FWD for Illumina (Lexogen). DNA sequencing was performed with Illumina Next-Seq500 High-Output 75 bp SR. Sequence alignment and DE (differential expression) analysis were done online at lexogen.bluebee.com. Heatmap was created in RStudio with plotly package. Co-regulated genes among 8a 8b and +2,4-D 2/6/24 h gene lists were then identified (fold change >1.5; p<0.1 for 8a 8b vs. WT; p<0.05 for +2,4-D vs. mock). Venn Diagrams were made using online tool at InteractiVenn.net^53. GO analysis was performed using agriGO v2 toolkit (Tian et al. agriGO v2.0: a GO analysis toolkit for the agricultural community, 2017 update. Nucleic Acids Res 45, W122-W129, (2017)). Heatmap analysis was made in R language with the plotly package. […]

## O=C(O)COc1ccc(Cl)cc1Cl [2,4-D]
2 h treatment vs mock
  number of auxin-responsive differentially expressed genes (DEG): 1731
6 h treatment vs mock
  number of auxin-responsive differentially expressed genes (DEG): 3262
24 h treatment vs mock
  number of auxin-responsive differentially expressed genes (DEG): 3212

Source: patent US20240417745A1, “SYSTEMS AND METHODS FOR SEEDLESS FRUIT TRAIT” (Duke University, priority 2023, published 2024)
